According to the OligoGym collection:
Several values for one entry are separate records, joined by “and”; a condition that tells them apart may be missing. Equal entries are not always repeated. After the bases stand the sugars from the 5' end (letter, count) and the backbone: PS all phosphorothioate, else s phosphorothioate and o phosphodiester by linkage. HELM strings list units from the 5' end as sugar, base in round brackets, then linkage (d deoxyribose, r ribose, m 2'-O-methyl, p phosphodiester). Methylation of C is not given here. [moe] = 2'-O-(2-methoxyethyl) (MOE); [cEt] = constrained ethyl (cEt); [sp] = phosphorothioate linkage; e = 2'-O-(2-methoxyethyl) (MOE); k = constrained ethyl (cEt); d = 2'-deoxy (DNA)

Assays:
HBV = settings: ASO
IRF5 = settings: ASO

| Substance | target mRNA inhibition (IRF5; KARPAS-229, 4 µM) | further results |
| --- | --- | --- |
| RNA1{[moe](A)[sp].[cEt](T)[sp].[cEt](G)[sp].d(A)[sp].d(G)[sp].d(G)[sp].d(C)[sp].d(A)[sp].d(T)[sp].d(A)[sp].d(G)[sp].d(C)[sp].d(A)[sp].[cEt](G)[sp].[cEt](C)[sp].[moe](A)}$$$$V2.0 |  | target mRNA inhibition (HBV; HepG2, 0.0092593 µM): 13%; target mRNA inhibition (HBV; HepG2, 0.0277778 µM): 14%; target mRNA inhibition (HBV; HepG2, 0.07 µM): 65% and 83%; target mRNA inhibition (HBV; HepG2, 0.0833333 µM): 55%; target mRNA inhibition (HBV; HepG2, 0.25 µM): 70% |
| RNA1{[moe](A)[sp].[cEt](T)[sp].[cEt](T)[sp].d(T)[sp].d(A)[sp].d(T)[sp].d(G)[sp].d(C)[sp].d(C)[sp].d(T)[sp].d(A)[sp].d(C)[sp].d(A)[sp].[cEt](G)[sp].[cEt](C)[sp].[moe](C)}$$$$V2.0 |  | target mRNA inhibition (HBV; HepG2, 0.07 µM): 57% and 46% |
| RNA1{[moe](A)[sp].[moe](A)[sp].[moe](C)[sp].[moe](C)[sp].d(A)[sp].d(C)[sp].d(T)[sp].d(G)[sp].d(A)[sp].d(A)[sp].d(C)[sp].d(A)[sp].d(A)[sp].[moe](A)[sp].[moe](T)[sp].[moe](G)[sp].[moe](G)}$$$$V2.0 |  | target mRNA inhibition (HBV; HepG2, 0.07 µM): 57% and 55% |
| RNA1{[moe](A)[sp].[moe](A)[sp].[moe](C)[sp].[moe](C)[sp].d(A)[sp].d(C)[sp].d(T)[sp].d(G)[sp].d(A)[sp].d(A)[sp].d(C)[sp].d(A)[sp].d(A)[sp].[moe](A)[sp].[moe](T)[sp].[moe](G)}$$$$V2.0 |  | target mRNA inhibition (HBV; HepG2, 0.07 µM): 52% and 54% |
| TAGTGTCATGGAATTT (sugars k3 d10 k3, PS) | 38% |  |
| TCACCACTGTGTACCC (sugars kkdddddddddkekek, PS) | 0% |  |
| TCACCACTGTGTACCC (sugars kkddddddddkekekk, PS) | 0% |  |
| TCACCACTGTGTACCC (sugars kkkddddddddkekek, PS) | 0% |  |
| TCCAATTTTGCATTCC (sugars kkkdddddddddkeke, PS) | 14% |  |
| TCCAATTTTGCATTCC (sugars kkkddddddddkdkdk, PS) | 32% |  |
| TCTGCAGGGAGTCAGA (sugars k3 d10 k3, PS) | 0% |  |
| TCTGGCCCTTTTGGAA (sugars kkddddddddkekekk, PS) | 0% |  |
| TGAATTTTGTGACTGT (sugars k3 d10 k3, PS) | 64% and 70% | target mRNA inhibition (IRF5; KARPAS-229, 0.44444 µM): 32%; target mRNA inhibition (IRF5; KARPAS-229, 1.33333 µM): 59%; target mRNA inhibition (IRF5; KARPAS-229, 12 µM): 81% |
| TGAGACGAGCAAAGGG (sugars k3 d10 k3, PS) | 22% |  |
| TGAGTCATGGAGCTGAG (sugars k2 d9 e3 k2 d1, PS) | 16% |  |
| TGAGTCATGGGCTGAG (sugars k3 d10 k3, PS) | 0% |  |
| TGAGTCATGGGCTGAG (sugars kkddddddddddkeke, PS) | 0% |  |

| Substance | target mRNA inhibition (IRF5; KARPAS-229, 4 µM) | further results |
| --- | --- | --- |
| TGAGTCATGGGCTGAG (sugars kkkdddddddddkeke, PS) | 17% |  |
| TGAGTCTCAAACCAGG (sugars k3 d9 k3 e1, PS) | 0% |  |
| TGAGTCTCAAACCAGG (sugars k3 d10 k3, PS) | 16% |  |
| TGCACTGACACAGGCG (sugars k3 d9 k3 e1, PS) | 0% |  |
| TGCACTGACACAGGCG (sugars kkddddddddddkeke, PS) | 16% |  |
| TGCACTGACACAGGCG (sugars kkdddddddddkdkdk, PS) | 0% |  |
| TGTCTAGTGTCATGGA (sugars k3 d9 k3 e1, PS) | 39% |  |
| TGTCTAGTGTCATGGA (sugars kkdddddddddkdkdk, PS) | 40% |  |
| TTATCTCCGTCCTGGC (sugars k3 d9 k3 e1, PS) | 0% |  |
| TTATTTCTGCTCCAGG (sugars k3 d10 k3, PS) | 55% and 77% | target mRNA inhibition (IRF5; KARPAS-229, 0.44444 µM): 51%; target mRNA inhibition (IRF5; KARPAS-229, 1.33333 µM): 66%; target mRNA inhibition (IRF5; KARPAS-229, 12 µM): 84% |
| TTATTTCTGCTCCAGG (sugars kddddddddddkekek, PS) | 0% |  |
| TTATTTCTGCTCCAGG (sugars kkdddddddddkekek, PS) | 9% |  |
| TTCTGCAGGGAGTCAG (sugars k3 d10 k3, PS) | 0% |  |
| TTGTCTAGTGTCATGG (sugars kdddddddddkekeke, PS) | 8% |  |
| TTGTCTAGTGTCATGG (sugars kkdddddddddkekek, PS) | 24% |  |
| TTTCTTGTCTAGTGTC (sugars k3 d10 k3, PS) | 53% |  |
| TTTGCTCTAAACCATT (sugars k3 d10 k3, PS) | 2% |  |
